± gives the expanded uncertainty stated by the source.
Test: xn = mol fraction of the nth substance listed
Conditions: Liquid; for viscosity: Vibrating wire viscometry; for mass density: vibrating-wire apparatus

CC(C)CCCC(C)CCCC(C)CCCCC(C)CCCC(C)CCCC(C)C (stereo unspecified) [2,6,10,15,19,23-hexamethyltetracosane] + O=C=O
Conditions | mass density [kg/m3] | viscosity [mPa·s]
398.13 K, 10940 kPa, x2 = 0.6039 | 749.2 ± 1.5 | 1.01 ± 0.02
398.13 K, 11100 kPa, x2 = 0.6039 | 748.9 ± 1.5 | 1 ± 0.02
398.13 K, 30870 kPa, x2 = 0.6039 | 771.8 ± 1.5 | 1.3 ± 0.03
398.13 K, 50550 kPa, x2 = 0.6039 | 789.2 ± 1.6 | 1.61 ± 0.03
398.13 K, 70810 kPa, x2 = 0.6039 | 804.2 ± 1.6 | 1.95 ± 0.04
398.13 K, 91230 kPa, x2 = 0.6039 | 817.2 ± 1.6 | 2.31 ± 0.05
398.13 K, 110700 kPa, x2 = 0.6039 | 828.2 ± 1.7 | 2.69 ± 0.06
398.13 K, 131240 kPa, x2 = 0.6039 | 838.7 ± 1.7 | 3.12 ± 0.06
398.13 K, 150740 kPa, x2 = 0.6039 | 847.7 ± 1.7 | 3.57 ± 0.07
398.13 K, 170660 kPa, x2 = 0.6039 | 856.2 ± 1.7 | 4.08 ± 0.08
398.31 K, 10790 kPa, x2 = 0.4233 | 749 ± 1.5 | 1.38 ± 0.03
398.31 K, 10830 kPa, x2 = 0.4233 | 755.3 ± 1.5 | 1.39 ± 0.03
398.31 K, 30180 kPa, x2 = 0.4233 | 768.1 ± 1.5 | 1.79 ± 0.04
398.31 K, 50350 kPa, x2 = 0.4233 | 784 ± 1.6 | 2.24 ± 0.05
398.31 K, 70500 kPa, x2 = 0.4233 | 797.4 ± 1.6 | 2.74 ± 0.06
398.31 K, 90450 kPa, x2 = 0.4233 | 808.9 ± 1.6 | 3.3 ± 0.07
398.31 K, 110290 kPa, x2 = 0.4233 | 819.1 ± 1.6 | 3.92 ± 0.08
398.31 K, 130350 kPa, x2 = 0.4233 | 828.4 ± 1.7 | 4.62 ± 0.1
398.31 K, 150520 kPa, x2 = 0.4233 | 837.2 ± 1.7 | 5.4 ± 0.11
398.31 K, 170000 kPa, x2 = 0.4233 | 845 ± 1.7 | 6.24 ± 0.13
398.33 K, 30150 kPa, x2 = 0.7882 | 760.4 ± 1.5 | 0.62 ± 0.01
398.33 K, 30500 kPa, x2 = 0.7882 | 759.9 ± 1.5 | 0.62 ± 0.02
398.33 K, 50500 kPa, x2 = 0.7882 | 786.7 ± 1.6 | 0.78 ± 0.02
398.33 K, 70580 kPa, x2 = 0.7882 | 807.3 ± 1.6 | 0.94 ± 0.02
398.33 K, 90510 kPa, x2 = 0.7882 | 824.2 ± 1.6 | 1.1 ± 0.02
398.33 K, 110760 kPa, x2 = 0.7882 | 839 ± 1.7 | 1.28 ± 0.03
398.33 K, 130550 kPa, x2 = 0.7882 | 851.6 ± 1.7 | 1.46 ± 0.03
398.33 K, 150620 kPa, x2 = 0.7882 | 863.2 ± 1.7 | 1.65 ± 0.03
398.33 K, 170310 kPa, x2 = 0.7882 | 873.6 ± 1.7 | 1.84 ± 0.04
448.13 K, 10630 kPa, x2 = 0.6039 | 713.1 ± 1.4 | 0.69 ± 0.02
448.13 K, 11010 kPa, x2 = 0.6039 | 713.3 ± 1.4 | 0.68 ± 0.02
448.13 K, 30730 kPa, x2 = 0.6039 | 739.7 ± 1.5 | 0.89 ± 0.02
448.13 K, 50590 kPa, x2 = 0.6039 | 759.8 ± 1.5 | 1.09 ± 0.02
448.13 K, 70380 kPa, x2 = 0.6039 | 776.6 ± 1.6 | 1.22 ± 0.03
448.13 K, 91380 kPa, x2 = 0.6039 | 791.8 ± 1.6 | 1.43 ± 0.03
448.13 K, 111050 kPa, x2 = 0.6039 | 804.5 ± 1.6 | 1.63 ± 0.03
448.13 K, 130810 kPa, x2 = 0.6039 | 815.7 ± 1.6 | 1.84 ± 0.04
448.13 K, 150960 kPa, x2 = 0.6039 | 826 ± 1.7 | 2.08 ± 0.04
448.13 K, 171000 kPa, x2 = 0.6039 | 835.3 ± 1.7 | 2.35 ± 0.05
448.35 K, 11450 kPa, x2 = 0.4233 | 715.2 ± 1.4 | 0.8 ± 0.02
448.35 K, 11570 kPa, x2 = 0.4233 | 720.6 ± 1.4 | 0.81 ± 0.02
448.35 K, 30330 kPa, x2 = 0.4233 | 737.6 ± 1.5 | 1.04 ± 0.02
448.35 K, 50410 kPa, x2 = 0.4233 | 756.5 ± 1.5 | 1.3 ± 0.03
448.35 K, 70450 kPa, x2 = 0.4233 | 771.8 ± 1.5 | 1.57 ± 0.03
448.35 K, 90670 kPa, x2 = 0.4233 | 785.2 ± 1.6 | 1.86 ± 0.04
448.35 K, 110310 kPa, x2 = 0.4233 | 796.6 ± 1.6 | 2.17 ± 0.05
448.35 K, 130440 kPa, x2 = 0.4233 | 807 ± 1.6 | 2.52 ± 0.05
448.35 K, 150510 kPa, x2 = 0.4233 | 816.5 ± 1.6 | 2.88 ± 0.06
448.35 K, 169900 kPa, x2 = 0.4233 | 824.8 ± 1.7 | 3.28 ± 0.07
448.41 K, 30160 kPa, x2 = 0.7882 | 714.5 ± 1.4 | 0.41 ± 0.01
448.41 K, 30820 kPa, x2 = 0.7882 | 714.9 ± 1.4 | 0.41 ± 0.01
448.41 K, 50450 kPa, x2 = 0.7882 | 748 ± 1.5 | 0.52 ± 0.01
448.41 K, 70350 kPa, x2 = 0.7882 | 772.5 ± 1.5 | 0.63 ± 0.01
448.41 K, 90420 kPa, x2 = 0.7882 | 792.3 ± 1.6 | 0.74 ± 0.02
448.41 K, 110590 kPa, x2 = 0.7882 | 809.1 ± 1.6 | 0.85 ± 0.02
448.41 K, 130360 kPa, x2 = 0.7882 | 823.3 ± 1.6 | 0.97 ± 0.02
448.41 K, 150480 kPa, x2 = 0.7882 | 836.2 ± 1.7 | 1.1 ± 0.02
448.41 K, 169720 kPa, x2 = 0.7882 | 847.5 ± 1.7 | 1.22 ± 0.03
